Source: paper PMC4071002, “Identification and In Vitro Reactivity of Celiac Immunoactive Peptides in an Apparent Gluten-Free Beer” (PLoS ONE, 2014)
Residues, ends and D or L forms follow the SMILES beside them.

Test system: moAb A1 (anti-gliadin 33-mer)
Assay: A1 competitive ELISA (immobilized gliadin, A1-HRP)
Type: binding
Conditions: Figure 2A
Experimental: Maxisorp microtitre plates (Nunc, Roskilde, Denmark) were coated with gliadin solution (Sigma, St Louis, MO, USA) and incubated overnight at 4°C. The plates were washed with phosphate-buffered saline (PBS) containing 0.05% Tween 20 and blocked with 5% non-fat dry milk in PBS for 1 h at room temperature (RT). 33-mer peptide was used as standard. Serial dilutions of peptides were made in PBS-bovine serum albumin (BSA) 3%, to each of which was added G12-HRP or A1-HRP antibody solution [14]. The samples were pre-incubated at RT, and then added to the wells. After 30 min of incubation at RT, the plates were washed and substrate solution (TMB, Sigma) was added. The reaction was stopped with 1 M sulphuric acid, and the absorbance at 450 nm was measured (microplate reader UVM340; Asys Hitech GmbH, Eugendorf, Austria). Two separate assays were performed, each with three repetitions.
Peptide curves were obtained by plotting percentage maximum absorbance against logarithm of antigen concentration. The software package Sigma Plot 9.0 (Systat Software, Inc., Point Richmond, CA, USA) was used to calculate IC50 and the cross-reactivity (CR) for each peptide. The IC50 is defined as the concentration that produces a reduction of 50% in the peak signal in the ELISA. The CR was determined as (IC50 of the peptide that presents the greatest affinity for the antibody/IC50 of each peptide assayed) x 100.

CC(C)C[C@H](NC(=O)[C@H](CCC(N)=O)NC(=O)[C@@H](N)CC(C)C)C(=O)N[C@@H](CCC(N)=O)C(=O)N1CCC[C@H]1C(=O)N[C@@H](Cc1ccccc1)C(=O)N1CCC[C@H]1C(=O)N[C@@H](CCC(N)=O)C(=O)N1CCC[C@H]1C(=O)N[C@@H](CCC(N)=O)C(=O)N[C@@H](CC(C)C)C(=O)N1CCC[C@H]1C(=O)N[C@@H](Cc1ccc(O)cc1)C(=O)N1CCC[C@H]1C(=O)N[C@@H](CCC(N)=O)C(=O)N1CCC[C@H]1C(=O)N[C@@H](CCC(N)=O)C(=O)N[C@@H](CC(C)C)C(=O)N1CCC[C@H]1C(=O)N[C@@H](Cc1ccc(O)cc1)C(=O)N1CCC[C@H]1C(=O)N[C@@H](CCC(N)=O)C(=O)N1CCC[C@H]1C(=O)N[C@@H](CCC(N)=O)C(=O)N[C@@H](CC(C)C)C(=O)N1CCC[C@H]1C(=O)N[C@@H](Cc1ccc(O)cc1)C(=O)N1CCC[C@H]1C(=O)N[C@@H](CCC(N)=O)C(=O)N1CCC[C@H]1C(=O)N[C@@H](CCC(N)=O)C(=O)N1CCC[C@H]1C(=O)N[C@@H](Cc1ccccc1)C(=O)O [33-mer] (H-LQLQPFPQPQLPYPQPQLPYPQPQLPYPQPQPF-OH; N-terminus and C-terminus assumed)
moAb A1 IC50 (competitive ELISA, gliadin-coated plates, A1-HRP, 30 min RT, absorbance 450 nm, two assays, three replicates each): 0.60 µg/mL | moAb A1 CR (cross-reactivity = (IC50 of peptide with greatest affinity / IC50 of each peptide) x 100, PP 24.1 = 100): 241.67%
